Here are results for seven molecules from patent US10196425B2, “Peptide compositions” (RHYTHM PHARMACEUTICALS, INC., priority 2013, dated 2019).

Where two headings read alike, the source gives them in different places. Bridge positions count the residues as written; N and C are the ends. Square brackets hold non-standard residues; d marks the D form. Peptide text beside a SMILES is read from it. Pen = CC(C)(S)[C@H](N)C(=O)O; hCys = N[C@@H](CCS)C(=O)O

Assay type in all cases: cell-based
One assay concerns the target MC1R (Homo sapiens, UniProt Q01726). Briefly: cAMP assay (β-galactosidase reporter, cAMP Hunter), MC1R. As to conditions: for Ratios of EC50 values MC ¼: EC50(MC1R)/EC50(MC4R). An excerpt:
(§1) cAMP Accumulation Measurement Via a β-Galactosidase (β-Gal) Reporter System
(§2) A chemiluminescence readout system that uses an enzyme fragment complementation (EFC) system with β-galactosidase (β-Gal) as the functional reporter system was used. This assay system for various melanocortin receptor systems is commercially available (cAMP Hunter GPCR assay system, Discoverx Corp, Fremont, Calif.). This assay utilizes the β-Gal enzyme that is split into two complementary portions; EA for Enzyme Acceptor and ED for Enzyme Donor. In the assay, the ED portion fused to cAMP is made to compete with cAMP generated by cells for binding to a cAMP-specific antibody. The EA is then added to form active β-Gal with any unbound ED-cAMP.
(§3) Briefly, 10000 cells per well are plated overnight and each well (cells incubated with 10 μl assay buffer) is then incubated with 4× serial concentration of the test compound in the cell assay buffer (5 μL) and cAMP antibody reagent (5 μL) for 30 min at 37° C. The cell lysis buffer (20 μL) containing ED-cAMP coupled enzyme fragment and the reporter substrate (Emerald II-Galacton Star, 5:1) is then added and incubated for 60 min at room temperature. Next, 20 μL of EA β-Gal fragment reagent is added.
(In general: cAMP levels reflect the balance of adenylyl cyclase and phosphodiesterase activity.)

For another assay, the target named is MC3R (Homo sapiens, UniProt P41968). Briefly: cAMP assay (β-galactosidase reporter, cAMP Hunter), MC3R. As to conditions: for Ratios of EC50 values MC ¾: EC50(MC3R)/EC50(MC4R).
MC3R, sequence (P41968 whole entry): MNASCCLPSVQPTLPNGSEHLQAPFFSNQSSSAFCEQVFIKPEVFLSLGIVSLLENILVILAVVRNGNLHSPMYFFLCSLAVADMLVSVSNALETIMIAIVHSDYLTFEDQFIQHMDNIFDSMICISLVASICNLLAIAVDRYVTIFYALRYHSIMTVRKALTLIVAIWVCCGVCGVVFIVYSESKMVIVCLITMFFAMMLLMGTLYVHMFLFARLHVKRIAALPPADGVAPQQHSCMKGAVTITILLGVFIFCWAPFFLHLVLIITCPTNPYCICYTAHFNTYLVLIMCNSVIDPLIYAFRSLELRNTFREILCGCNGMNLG
Description: as §1, §2, §3

A further assay addresses MC5R (Homo sapiens, UniProt P33032). Briefly: cAMP assay (β-galactosidase reporter, cAMP Hunter), MC5R. As to conditions: for Ratios of EC50 values MC 5/4: EC50(MC5R)/EC50(MC4R).
Description: as §1, §2, §3

A further assay addresses MC4R (Homo sapiens, UniProt P32245). Briefly: cAMP assay (β-galactosidase reporter, cAMP Hunter), MC4R.
Description: as §1, §2, §3

Where [1] appears, read: agonist cAMP stimulation, read-out: cAMP Assay (EC-50) MC1R.
Where [2] appears, read: agonist cAMP stimulation, read-out: cAMP Assay (EC-50) MC3R.
The mark [3] stands for this setting: agonist cAMP stimulation, read-out: cAMP Assay (EC-50) MC5R.
Setting [4] is: agonist cAMP stimulation, read-out: cAMP Assay (EC-50) MC4R.

MC5R, sequence (P33032 whole entry): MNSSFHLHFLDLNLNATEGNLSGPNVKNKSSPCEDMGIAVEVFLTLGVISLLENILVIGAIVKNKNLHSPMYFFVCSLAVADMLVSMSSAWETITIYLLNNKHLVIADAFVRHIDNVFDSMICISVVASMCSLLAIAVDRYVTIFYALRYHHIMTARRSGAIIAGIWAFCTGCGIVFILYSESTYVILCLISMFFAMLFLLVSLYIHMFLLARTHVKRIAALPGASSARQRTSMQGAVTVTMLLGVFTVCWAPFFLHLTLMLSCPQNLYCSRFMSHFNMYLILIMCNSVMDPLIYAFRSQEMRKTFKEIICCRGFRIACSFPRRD
MC1R, sequence (Q01726 whole entry): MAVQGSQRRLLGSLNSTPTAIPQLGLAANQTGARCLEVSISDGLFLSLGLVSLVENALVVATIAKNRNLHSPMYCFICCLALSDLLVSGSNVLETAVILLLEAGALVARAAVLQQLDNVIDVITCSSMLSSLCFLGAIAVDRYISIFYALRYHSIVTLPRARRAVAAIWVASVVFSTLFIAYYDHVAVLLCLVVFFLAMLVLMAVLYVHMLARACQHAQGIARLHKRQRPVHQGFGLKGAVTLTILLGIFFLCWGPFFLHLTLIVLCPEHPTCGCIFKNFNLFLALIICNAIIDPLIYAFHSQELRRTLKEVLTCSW
MC4R, sequence (P32245 whole entry): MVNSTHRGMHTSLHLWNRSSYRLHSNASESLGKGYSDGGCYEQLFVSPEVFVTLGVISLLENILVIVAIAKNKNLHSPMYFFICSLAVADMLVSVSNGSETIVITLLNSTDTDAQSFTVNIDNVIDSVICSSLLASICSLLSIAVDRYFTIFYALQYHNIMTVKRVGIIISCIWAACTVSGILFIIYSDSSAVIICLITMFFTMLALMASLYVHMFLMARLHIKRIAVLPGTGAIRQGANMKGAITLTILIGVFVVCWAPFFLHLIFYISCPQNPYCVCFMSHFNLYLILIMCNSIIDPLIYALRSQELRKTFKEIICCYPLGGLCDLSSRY

Turning to `CC(=O)N[C@@H](CCCNC(=N)N)C(=O)N[C@H]1CCSSC[C@@H](C(N)=O)NC(=O)[C@H](Cc2c[nH]c3ccccc23)NC(=O)[C@H](CCCNC(=N)N)NC(=O)[C@@H](Cc2ccccc2)NC(=O)[C@@H](C)NC1=O` [Compound 16, Ac-Arg-cyclo[hCys-D-Ala-D-Phe-Arg-Trp-Cys]-NH2] (Ac-R[hCys][dA][dF]RWC-NH2; disulfide 2-7), the “Ratios of EC50 values MC ¼” value at MC1R was 120. The EC50 was 888 nM on MC1R (setting [1]), 3.16 µM on MC3R (setting [2]), > 10000 nM at MC5R (setting [3]) and 7.5 nM at MC4R (setting [4]). Besides, the “Ratios of EC50 values MC ¾” value on MC3R is reported as 420. Further, the “Ratios of EC50 values MC 5/4” value on MC5R is >1338.

For the molecule `CC(=O)N[C@@H](CCCNC(=N)N)C(=O)N[C@H]1CSSC[C@@H](C(N)=O)NC(=O)[C@H](Cc2c[nH]c3ccccc23)NC(=O)[C@H](CCCNC(=N)N)NC(=O)[C@@H](Cc2ccccc2)NC(=O)[C@H](Cc2cncn2C)NC(=O)[C@@H](C)NC1=O` [Compound 5, Ac-Arg-cyclo[Cys-D-Ala-His(3-Me)-D-Phe-Arg-Trp-Cys]-NH2], the EC50 at MC1R was 4.1 nM; on MC3R it was 0.406 µM; at MC5R, 1080 nM; on MC4R, 1.15 nM. In addition, at MC1R, the “Ratios of EC50 values MC ¼” value worked out at 4. In addition, the “Ratios of EC50 values MC ¾” value on MC3R worked out at 350. The “Ratios of EC50 values MC 5/4” value at MC5R is given as 945.

On to `CC(=O)N[C@@H](CCCNC(=N)N)C(=O)N[C@H]1CSSC[C@@H](C(N)=O)NC(=O)[C@H](Cc2c[nH]c3ccccc23)NC(=O)[C@H](CCCNC(=N)N)NC(=O)[C@@H](Cc2ccccc2)NC(=O)[C@H](Cc2cn(C)cn2)NC(=O)[C@@H](C)NC1=O` [Compound 6, Ac-Arg-cyclo[Cys-D-Ala-His(1-Me)-D-Phe-Arg-Trp-Cys]-NH2], for which, on MC1R, the EC50 stood at 30.4 nM and the “Ratios of EC50 values MC ¼” value amounted to 40. On MC3R, the EC50 was found to be 0.0043 µM and the “Ratios of EC50 values MC ¾” value was determined as 6. Further, at MC5R, the EC50 came to 467 nM and the “Ratios of EC50 values MC 5/4” value was 662. Moreover, the EC50 on MC4R was 0.7 nM.

`CC(=O)N[C@@H](CCCNC(=N)N)C(=O)N[C@H]1CSSC[C@@H](C(N)=O)NC(=O)[C@H](Cc2c[nH]c3ccccc23)NC(=O)[C@H](CCCNC(=N)N)NC(=O)[C@@H](Cc2ccccc2)NC(=O)[C@H](Cc2c[nH]cn2)NC(=O)[C@@H](C(C)C)NC1=O` [Compound 4, Ac-Arg-cyclo[Cys-D-Val-His-D-Phe-Arg-Trp-Cys]-NH2]: at MC1R, the “Ratios of EC50 values MC ¼” value is reported as 0.93. Further, the EC50 was determined as 1.25 nM at MC1R (setting [1]), 0.00159 µM on MC3R (setting [2]), 782 nM at MC5R (setting [3]) and 1.34 nM on MC4R (setting [4]). Also, the “Ratios of EC50 values MC ¾” value on MC3R was 1.19. Further, the “Ratios of EC50 values MC 5/4” value at MC5R was 584.

As to `CC(=O)N[C@@H](CCCNC(=N)N)C(=O)N[C@H]1CCSSC(C)(C)[C@@H](C(N)=O)NC(=O)[C@H](Cc2c[nH]c3ccccc23)NC(=O)[C@H](CCCNC(=N)N)NC(=O)[C@@H](Cc2ccccc2)NC(=O)[C@@H](C)NC1=O` [Compound 17, Ac-Arg-cyclo[hCys-D-Ala-D-Phe-Arg-Trp-Pen]-NH2] (Ac-R[hCys][dA][dF]RW[Pen]-NH2; disulfide 2-7), on MC1R, the “Ratios of EC50 values MC ¼” value stood at 15. Further, the EC50 worked out at 195 nM at MC1R (setting [1]), 0.233 µM on MC3R (setting [2]), 2180 nM at MC5R (setting [3]) and 13.7 nM at MC4R (setting [4]). Besides, on MC3R, the “Ratios of EC50 values MC ¾” value worked out at 17. Besides, the “Ratios of EC50 values MC 5/4” value on MC5R is recorded as 159.

Consider `CC(=O)N[C@@H](CCCNC(=N)N)C(=O)N[C@H]1CSSC[C@@H](C(N)=O)NC(=O)[C@H](Cc2c[nH]c3ccccc23)NC(=O)[C@H](CCCNC(=N)N)NC(=O)[C@@H](Cc2ccccc2)NC(=O)[C@H](Cc2c[nH]c3ccccc23)NC(=O)[C@@H](C)NC1=O` [Compound 7, Ac-Arg-cyclo[Cys-D-Ala-Trp-D-Phe-Arg-Trp-Cys ]-NH2] (Ac-RC[dA]W[dF]RWC-NH2; disulfide 2-8), for which, at MC1R, the “Ratios of EC50 values MC ¼” value was found to be 8. Also, the EC50 at MC1R (setting [1]) was 273 nM; on MC3R (agonist cAMP stimulation, in uM, read-out: cAMP Assay (EC-50) MC3R), > 10 µM; on MC5R (setting [3]), 259 nM; at MC4R (setting [4]) it was 34 nM. The “Ratios of EC50 values MC ¾” value at MC3R is listed as >290. For the same molecule, the “Ratios of EC50 values MC 5/4” value on MC5R is 7.

`CC(=O)N[C@@H](CCCNC(=N)N)C(=O)N[C@H]1CCSSC[C@@H](C(N)=O)NC(=O)[C@H](Cc2c[nH]c3ccccc23)NC(=O)[C@H](CCCNC(=N)N)NC(=O)[C@@H](Cc2ccccc2)NC(=O)[C@H](C)NC1=O` [Compound 15, Ac-Arg-cyclo[hCys-Ala-D-Phe-Arg-Trp-Cys]-NH2] (Ac-R[hCys]A[dF]RWC-NH2; disulfide 2-7): at MC1R, the “Ratios of EC50 values MC ¼” value amounted to 15. For the same molecule, the EC50 on MC1R (setting [1]) is 4 nM; at MC3R (setting [2]) it was 0.001 µM; on MC5R (setting [3]), 42 nM; at MC4R (setting [4]), 0.26 nM. Moreover, at MC3R, the “Ratios of EC50 values MC ¾” value is reported as 3.8. The “Ratios of EC50 values MC 5/4” value at MC5R is listed as 161.
